Laboratory results as given in patent US20200339625A1, “NOVEL RADIOMETAL-BINDING COMPOUNDS FOR DIAGNOSIS OR TREATMENT OF PROSTATE SPECIFIC MEMBRANE ANTIGEN-EXPRESSING CANCER” (PROVINCIAL HEALTH SERVICES AUTHORITY, priority 2017, published 2020).

Assays:
[1] = system: mice bearing LNCaP xenografts; assay: Biodistribution of 177Lu-labeled compounds; format: in vivo
Experimental: 1.17 SPECT/CT Imaging, Biodistribution and Endoradiotherapy Studies
SPECT/CT imaging and biodistribution were performed using NOD-scid IL2Rgammanu^null (NSG) male mice, and the endoradiotherapy study was conducted using NOD.Cg-Rag1^tm1MomII2rg^tm1WjI/SzJ (NRG) male mice. The mice were maintained and the experiments were conducted in according to the guidelines established by the Canadian Council on Animal Care and approved by Animal Ethics Committee of the University of British Columbia. Mice were anesthetized by inhalation with 2% isoflurane in oxygen, and implanted subcutaneously with 1×10^7 LNCaP cells posterior to the left shoulder. Mice were used for studies when the tumor reached 5-8 mm in diameter 5-6 weeks after inoculation.
For biodistribution studies, the mice were injected with ^177Ludabeled PSMA-617 or HTK01169 (2-4 MBq) as described above. At predetermined time points (1, 4, 24, 72, or 120 h post-injection), the mice were euthanized by CO2 inhalation. Blood was withdrawn immediately from the heart, and the organs/tissues of interest were collected. The collected organs/tissues were weighed and counted using an automated gamma counter. For the blocking study, mice were co-injected with ^177Lu-HTK01169 (2-4 MBq) and 50 nmol of the non-radioactive standard, and organs/tissues of interest were collected at 4 h post-injection.

LNCaP tumors = assay: Radiation dosimetry calculation, unit density sphere model; design: species or system mice
Experimental: Internal dosimetry estimates were calculated using the organ level internal dose assessment (OLINDA) software v.2.0.^37 These estimates were performed for the mouse using the 25 g MOBY phantom,^38 for humans using the NURBS model for the adult male,^39 and for the tumors using the previously reported unit density sphere model.^40 All the phantoms and the sphere model are available in OLINDA and require the input of the total number of decays normalized by injected activity in units of MBq×h/MBq for each of the source organ/tumor.
Lastly, the numbers of decays in the tumors were also calculated based on the biodistribution data of the mice and the values were inputted into the sphere model available in OLINDA.

human serum = assay: Plasma protein binding assay; format: in vitro ADME; conditions: for filter-bound radioactivity: n=3
Experimental: 1.16 Plasma Protein Binding Assay
Plasma protein binding assays were performed according to literature methods.^19 Briefly, 37 kBq of ^177Lu-PSMA-617 or ^177Lu-HTK01169 in 50 μL PBS was added into 200 μL human serum and the mixture was incubated at room temperature for […]. The mixture was then loaded onto a membrane filter (Nanosep®, 30 K, Pall Corporation, USA) and centrifuged for 45 min (30,130×g). Saline (50 μL) was added and centrifugation was continued for another 15 min. The top part with the membrane filter and the bottom part with the solution were counted on a gamma counter. For control, saline was used in place of human serum.

[2] = 4 h post-injection, blocking (co-injection of 50 nmol non-radioactive standard)

O=C([O-])CN1CCN(CC(=O)[O-])CCN(CC(=O)NCCCC[C@H](NC(=O)[C@H](CCC(=O)O)NC(=O)CCCc2ccc(I)cc2)C(=O)NC[C@H]2CC[C@H](C(=O)N[C@@H](Cc3ccc4ccccc4c3)C(=O)NCCCC[C@H](NC(=O)N[C@@H](CCC(=O)O)C(=O)O)C(=O)O)CC2)CCN(CC(=O)[O-])CC1.[177Lu+3] [^177Lu-HTK01169]
Adrenal glands uptake ([1]; 1 h post-injection): 9.94 ± 2.10 % ID/g | Blood uptake ([1]; 1 h post-injection): 16.6 ± 1.85 % ID/g | Bone uptake ([1]; 1 h post-injection): 0.93 ± 0.31 % ID/g | Brain uptake ([1]; 1 h post-injection): 0.18 ± 0.07 % ID/g | Fat uptake ([1]; 1 h post-injection): 3.20 ± 1.03 % ID/g | Heart uptake ([1]; 1 h post-injection): 3.93 ± 0.95 % ID/g | Intestine uptake ([1]; 1 h post-injection): 1.64 ± 0.20 % ID/g | Kidneys uptake ([1]; 1 h post-injection): 51.1 ± 4.07 % ID/g | Liver uptake ([1]; 1 h post-injection): 2.55 ± 0.45 % ID/g | Lung uptake ([1]; 1 h post-injection): 7.11 ± 0.98 % ID/g | Muscle uptake ([1]; 1 h post-injection): 1.39 ± 0.12 % ID/g | Pancreas uptake ([1]; 1 h post-injection): 1.77 ± 0.24 % ID/g | Seminal uptake ([1]; 1 h post-injection): 1.02 ± 0.15 % ID/g | Spleen uptake ([1]; 1 h post-injection): 10.6 ± 4.07 % ID/g | Stomach uptake ([1]; 1 h post-injection): 0.50 ± 0.15 % ID/g | Testes uptake ([1]; 1 h post-injection): 2.14 ± 0.31 % ID/g | Tumor uptake ([1]; 1 h post-injection): 13.4 ± 3.26 % ID/g | Tumor/blood ratio ([1]; 1 h post-injection): 0.81 ± 0.18 | Tumor/kidney ratio ([1]; 1 h post-injection): 0.26 ± 0.05 | Tumor/muscle ratio ([1]; 1 h post-injection): 9.76 ± 2.65 | Adrenal glands uptake ([1]; 4 h post-injection): 9.91 ± 2.55 % ID/g | Blood uptake ([1]; 4 h post-injection): 10.2 ± 1.40 % ID/g | Bone uptake ([1]; 4 h post-injection): 0.79 ± 0.30 % ID/g | Brain uptake ([1]; 4 h post-injection): 0.16 ± 0.01 % ID/g | Fat uptake ([1]; 4 h post-injection): 2.95 ± 0.81 % ID/g | Heart uptake ([1]; 4 h post-injection): 2.50 ± 0.54 % ID/g | Intestine uptake ([1]; 4 h post-injection): 1.25 ± 0.17 % ID/g | Kidneys uptake ([1]; 4 h post-injection): 85.7 ± 7.11 % ID/g | Liver uptake ([1]; 4 h post-injection): 1.97 ± 0.05 % ID/g | Lung uptake ([1]; 4 h post-injection): 5.92 ± 0.22 % ID/g | Muscle uptake ([1]; 4 h post-injection): 0.98 ± 0.06 % ID/g | Pancreas uptake ([1]; 4 h post-injection): 1.51 ± 0.28 % ID/g | Seminal uptake ([1]; 4 h post-injection): 1.07 ± 0.62 % ID/g | Spleen uptake ([1]; 4 h post-injection): 8.05 ± 3.62 % ID/g | Stomach uptake ([1]; 4 h post-injection): 0.57 ± 0.11 % ID/g | Testes uptake ([1]; 4 h post-injection): 1.91 ± 0.63 % ID/g | Tumor/blood ratio ([1]; 4 h post-injection): 2.71 ± 0.68 | Tumor/kidney ratio ([1]; 4 h post-injection): 0.32 ± 0.07 | Tumor/muscle ratio ([1]; 4 h post-injection): 28.0 ± 6.92 | Adrenal glands uptake [1, 2]: 0.68 ± 0.24 % ID/g | Blood uptake [1, 2]: 0.96 ± 0.25 % ID/g | Bone uptake [1, 2]: 0.12 ± 0.04 % ID/g | Brain uptake [1, 2]: 0.03 ± 0.00 % ID/g | Fat uptake [1, 2]: 0.25 ± 0.13 % ID/g | Heart uptake [1, 2]: 0.41 ± 0.07 % ID/g | Intestine uptake [1, 2]: 0.25 ± 0.10 % ID/g | Kidneys uptake [1, 2]: 5.50±1.95 % ID/g | Liver uptake [1, 2]: 0.51 ± 0.08 % ID/g | Lung uptake [1, 2]: 0.89 ± 0.29 % ID/g | Muscle uptake [1, 2]: 0.12 ± 0.02 % ID/g | Pancreas uptake [1, 2]: 0.19 ± 0.02 % ID/g | Seminal uptake [1, 2]: 0.19 ± 0.13 % ID/g | Spleen uptake [1, 2]: 0.61 ± 0.17 % ID/g | Stomach uptake [1, 2]: 0.19 ± 0.10 % ID/g | Testes uptake [1, 2]: 0.58 ± 0.14 % ID/g | Tumor uptake [1, 2]: 1.70±0.28 % ID/g | Tumor/blood ratio [1, 2]: 1.81 ± 0.31 | Tumor/kidney ratio [1, 2]: 0.32 ± 0.06 | Tumor/muscle ratio [1, 2]: 13.7 ± 1.47 | Adrenal glands uptake ([1]; 24 h post-injection): 4.53 ± 1.10 % ID/g | Blood uptake ([1]; 24 h post-injection): 2.10 ± 0.41 % ID/g | Bone uptake ([1]; 24 h post-injection): 0.26 ± 0.05 % ID/g | Brain uptake ([1]; 24 h post-injection): 0.06 ± 0.01 % ID/g | Fat uptake ([1]; 24 h post-injection): 2.06 ± 0.71 % ID/g | Heart uptake ([1]; 24 h post-injection): 0.83 ± 0.25 % ID/g | Intestine uptake ([1]; 24 h post-injection): 0.45 ± 0.13 % ID/g | Kidneys uptake ([1]; 24 h post-injection): 125 ± 16.4 % ID/g | Liver uptake ([1]; 24 h post-injection): 1.03 ± 0.22 % ID/g | Lung uptake ([1]; 24 h post-injection): 1.98 ± 0.44 % ID/g | Muscle uptake ([1]; 24 h post-injection): 0.39 ± 0.07 % ID/g | Pancreas uptake ([1]; 24 h post-injection): 0.59 ± 0.12 % ID/g | Seminal uptake ([1]; 24 h post-injection): 0.36 ± 0.13 % ID/g | Spleen uptake ([1]; 24 h post-injection): 3.70 ± 1.67 % ID/g | Stomach uptake ([1]; 24 h post-injection): 0.34 ± 0.12 % ID/g | Testes uptake ([1]; 24 h post-injection): 1.19 ± 0.23 % ID/g | Tumor uptake ([1]; 24 h post-injection): 55.9±12.5 % ID/g | Tumor/blood ratio ([1]; 24 h post-injection): 26.7 ± 2.79 | Tumor/kidney ratio ([1]; 24 h post-injection): 0.45 ± 0.13 | Tumor/muscle ratio ([1]; 24 h post-injection): 142 ± 14.4 | Adrenal glands uptake ([1]; 72 h post-injection): 1.65 ± 0.46 % ID/g | Blood uptake ([1]; 72 h post-injection): 0.28 ± 0.10 % ID/g | Bone uptake ([1]; 72 h post-injection): 0.11 ± 0.03 % ID/g | Brain uptake ([1]; 72 h post-injection): 0.03 ± 0.00 % ID/g | Fat uptake ([1]; 72 h post-injection): 1.34 ± 0.72 % ID/g | Heart uptake ([1]; 72 h post-injection): 0.28 ± 0.04 % ID/g | Intestine uptake ([1]; 72 h post-injection): 0.13 ± 0.06 % ID/g | Kidneys uptake ([1]; 72 h post-injection): 37.8 ± 18.7 % ID/g | Liver uptake ([1]; 72 h post-injection): 0.46 ± 0.12 % ID/g | Lung uptake ([1]; 72 h post-injection): 0.51 ± 0.17 % ID/g | Muscle uptake ([1]; 72 h post-injection): 0.11 ± 0.02 % ID/g | Pancreas uptake ([1]; 72 h post-injection): 0.15 ± 0.02 % ID/g | Seminal uptake ([1]; 72 h post-injection): 0.12 ± 0.04 % ID/g | Spleen uptake ([1]; 72 h post-injection): 1.13 ± 0.32 % ID/g | Stomach uptake ([1]; 72 h post-injection): 0.17 ± 0.12 % ID/g | Testes uptake ([1]; 72 h post-injection): 0.62 ± 0.11 % ID/g | Tumor uptake ([1]; 72 h post-injection): 53.6 ± 8.06 % ID/g | Tumor/blood ratio ([1]; 72 h post-injection): 204 ± 63.5 | Tumor/kidney ratio ([1]; 72 h post-injection): 1.63 ± 0.58 | Tumor/muscle ratio ([1]; 72 h post-injection): 519 ± 91.5 | Adrenal glands uptake ([1]; 120 h post-injection): 0.65 ± 0.21 % ID/g | Blood uptake ([1]; 120 h post-injection): 0.06 ± 0.03 % ID/g | Bone uptake ([1]; 120 h post-injection): 0.08 ± 0.01 % ID/g | Brain uptake ([1]; 120 h post-injection): 0.03 ± 0.00 % ID/g | Fat uptake ([1]; 120 h post-injection): 0.73 ± 0.13 % ID/g | Heart uptake ([1]; 120 h post-injection): 0.16 ± 0.07 % ID/g | Intestine uptake ([1]; 120 h post-injection): 0.10 ± 0.06 % ID/g | Kidneys uptake ([1]; 120 h post-injection): 8.63 ± 2.51 % ID/g | Liver uptake ([1]; 120 h post-injection): 0.34 ± 0.23 % ID/g | Lung uptake ([1]; 120 h post-injection): 0.17 ± 0.04 % ID/g | Muscle uptake ([1]; 120 h post-injection): 0.04 ± 0.01 % ID/g | Pancreas uptake ([1]; 120 h post-injection): 0.07 ± 0.02 % ID/g | Seminal uptake ([1]; 120 h post-injection): 0.08 ± 0.04 % ID/g | Spleen uptake ([1]; 120 h post-injection): 1.18 ± 0.55 % ID/g | Stomach uptake ([1]; 120 h post-injection): 0.21 ± 0.20 % ID/g | Testes uptake ([1]; 120 h post-injection): 0.40 ± 0.05 % ID/g | Tumor uptake ([1]; 120 h post-injection): 56.4±13.2 % ID/g | Tumor/blood ratio ([1]; 120 h post-injection): 1146 ± 722 | Tumor/kidney ratio ([1]; 120 h post-injection): 7.12 ± 3.11 | Tumor/muscle ratio ([1]; 120 h post-injection): 1708 ± 718 | fold higher peak tumor uptake than 177Lu-PSMA-617 ([1]; LNCaP tumor xenografts): 3.7 fold | blood clearance (qualitative) ([1]; mouse, in vivo): relatively slower than ^177Lu-PSMA-617 | peaked tumor uptake ([1]; peak over 1-120 h): 55.9±12.5 % ID/g | kinetic uptake value used as input in OLINDA (LNCaP tumors): 31.72 MBq-h/MBq | free radioligand (human serum; human serum): < 1% | filter-bound radioactivity (human serum; incubated with human serum): 99.2±0.02% | filter-bound radioactivity (human serum; incubated with saline (control)): 25.8±3.42%
